Test results from patent publication US12157745B2, “Heterocyclic systems and pharmaceutical compositions thereof” (University of Sharjah, priority 2018, dated 2024).

Key:
Test in all cases: Full dose-response, survival of cancer cell line (SRB assay)
Format in all cases: cell-based
HCT116 = settings: Homo sapiens, HCT-116; colon cancer; 48 hours of drug treatment; average of three individual experiments
Text: (§1) Dulbecco's Modified Eagles Medium (DMEM), RPMI 1640 medium and propidium iodide (PI) were purchased from Sigma Aldrich (Darmstadt, Germany). For western blot, the antibodies; c-Myc, p^53, p^21, Bax, Bid, BclxL, GAPDH, caspase-3, caspase-9, p-ATM, p-ATR, p-Chk1, p-Chk2, p-P^53, and p-H2AX along with respective mouse/rabbit secondary antibodies were purchased from Cell Signaling Technology (Danvers, MA, USA). FITC Annexin V Apoptosis kit was purchased from BD Biosciences (New Jersey, USA). All other chemicals and solvents used were of standard analytical grade. The stock solutions of SIMR compounds were made in 100% DMSO and working solutions for treatments never exceeded >1% DMSO. The cell lines were gifted from Radiobiology and Experimental Radio Oncology lab, University Cancer Center, Hamburg University, Hamburg, Germany. F180 and HCT116 cells were cultured in DMEM media while MCF-7 and SKBR3 cells were cultured in RPMI along with 10% FBS and 5% CO2 in a humidified incubator at 37° C. The cells were grown on polystyrene T-75 (75 cm^2) culture flasks and all the experiments were performed at ˜70% cell confluency.
(§2) SRB assay was performed on DU-143 and MCF-7 cells in order to find out the sub-lethal dosage (IC50) of the synthesized compounds based on reported method with minor modifications. Briefly, 1×10^4 cells were seeded in a 96-well plate overnight and were treated with different concentrations of compounds and incubated further for 48 hours. The wells which were devoid of any treatment served as controls. After the treatment time, the plates were incubated with 50% trichloroacetic acid (TCA) at 4° C. for 1 hour. The cells were then washed, dried and exposed to 1% acetic acid for short period. Two hundred microliters of 10 mMtris base solution was then added with 10 min incubation after drying the plates and the OD was read at 492 nm by using a Multiskan™ GO (Thermo Scientific, USA) microplate Spectrophotometer.

SKBR3 = settings: Homo sapiens, SK-BR-3; breast cancer; 48 hours of drug treatment; average of three individual experiments
Text: as §1, §2

MCF7 = settings: Homo sapiens, breast cancer, 48 hours of drug treatment, average of three individual experiments
Text: as §1, §2

CC(=O)Nc1ccc(C2=CSC3=N[C@@H]4c5c(ccc6ccccc56)OC[C@@H]4C(C)(C)N23)cc1 [Compound 1m]
IC50 (HCT116): 3.7 µM
IC50 (SKBR3): 6.4 µM
IC50 (MCF7): 4.5 µM

COc1ccc(OC)c(C2=CSC3=N[C@@H]4c5c(ccc6ccccc56)OC[C@@H]4C(C)(C)N23)c1 [Compound 1n]
IC50 (HCT116): 6.2 µM
IC50 (SKBR3): 10.1 µM
IC50 (MCF7): 6.76 µM

CC1=C(c2ccccc2)N2C(=N[C@@H]3c4c(ccc5ccccc45)OC[C@@H]3C2(C)C)S1 [Compound 1q]
IC50 (HCT116): 4.7 µM
IC50 (SKBR3): 9.4 µM
IC50 (MCF7): 11.8 µM

CC1=C(c2ccc(Br)cc2)N2C(=N[C@@H]3c4c(ccc5ccccc45)OC[C@@H]3C2(C)C)S1 [Compound 1r]
IC50 (HCT116): 7.2 µM
IC50 (SKBR3): 7.6 µM
IC50 (MCF7): 8.14 µM

CC1=C(c2ccc(Cl)c(Cl)c2)N2C(=N[C@H]3c4cc5c6c(c4OC[C@@H]3C2(C)C)CCCN6CCC5)S1 [Compound 1x]
IC50 (HCT116): 2.3 µM
IC50 (SKBR3): 1.4 µM
IC50 (MCF7): 0.38 µM

COc1cccc2c1C(=O)c1c(O)c3c(c(O)c1C2=O)C[C@@](O)(C(=O)CO)C[C@@H]3O[C@H]1C[C@H](N)[C@H](O)[C@H](C)O1 [Doxorubicin, reference compound]
IC50 (HCT116): 0.096 µM
IC50 (SKBR3): 0.25 µM
IC50 (MCF7): 0.058 µM
